Experimental data published in patent publication US20250346629A1, “USE OF D-ENANTIOMERIC PEPTIDE LIGANDS OF MONOMERIC ALPHA-SYNUCLEIN FOR THE THERAPY OF VARIOUS SYNUCLEINOPATHIES” (PRIAVOID GMBH, priority 2021, published 2025).
pKd: −log10 of the molar value. Square brackets hold non-standard residues; d marks the D form. Peptide text beside a SMILES is read from it.

How the values were obtained:
full-length α-syn = full-length α-syn (Homo sapiens, UniProt P37840); assay: MST measurement of fluorophore-labeled peptides with full-length α-syn (FIG. 10); assay type: binding; conditions: 100 nM labeled peptide, PBS pH 7.4, 25° C., individual measurement
Description: The peptides were fluorescence labeled by means of cysteine-maleimide coupling. SVD-1_Cys and SVD 1a_Cys were fluorescence labeled at the C-terminus with a fivefold or tenfold molar excess of TCEP and CF633-PEG2-maleimide (Sigma-Aldrich, USA). The labeling reaction was carried out in 25 mM NaPi, PH 7.0, for 2 h at RT. The labeled peptides were purified at 25° C. using an Agilent 1260 Infinity II System and a C-18 RP-HPLC column (Zorbax 300 SB-C8/SB-C 18, Agilent, USA). The mobile phases consisted of A: water+0.1% TFA, and B: acetonitrile+0.1% TFA. The fluorescence-labeled peptides and proteins were eluted with a gradient of 5-40% (v/v) B in 30 min. The fluorescence-labeled products were fractionated using the absorption wavelength of the fluorophore (CF633: 633 nm) and the pooled samples were subsequently lyophilized and redissolved in the appropriate buffer. The protein concentrations were determined by means of UV-vis and the fluorescence-labeled samples were stored at −20° C.
The experiments for microscale thermophoresis (MST) were carried out using a Monolith NT.115 device (NanoTemper Technologies GmbH, GE). Fluorescence-labeled peptides were diluted in PBS, PH 7.4 to a final concentration of 100 nM. […] The data was evaluated with the thermophoresis effect, using the NT analysis software (version 1.5.41) supplied by the manufacturer. […]

PC12 cells = assay type: cell-based; conditions: rat, 24 h, 0.5 μM
Description: PC12 cells (Leibniz-Institut DSMZ, GE) were cultured at 37° C. on a collagen A-coated (Biochrom GmbH, GE) tissue culture flask in RPMI 1640 medium, supplemented with 5% fetal calf serum and 10% horse serum in an atmosphere humidified to 95% with 5% CO2. 10 000 cells per well in a volume of 100 μl were seeded into collagen A-coated 96-well plates (Thermo Fisher Scientific, USA and incubated for 24 hours at 37° C. and 300 rpm in a thermocycler.
Furthermore, 15 μM of the peptides alone, cell media, buffer without peptide and 0.1% Triton X-100 (cytotoxic compound) were used as controls. After further incubation in a 95% humidified atmosphere with 5% CO2 at 37° C. for 24 hours, the viability of the cells was measured using the Cell Proliferation Kit I (MTT) (Roche Applied Science, CH), following the manufacturer's protocol.
The MTT-formazan product was quantified by measuring the absorbance at 570 nm, corrected by subtracting the absorbance at 660 nm, in a FluoroStar Optima plate reader (BMG labtech, GE). All results were normalized to untreated cells grown only in medium. The significance test was carried out by one-way ANOVA with Bonferroni post-hoc analysis (OriginPro 2020, OriginLab, USA; n=4).
The significance test was carried out by one-way ANOVA with Bonferroni post-hoc analysis: […], ***p≤0.01. The means are stated±SD (n=4).

pKd (full-length α-syn): 6.41
SMILES: CC[C@@H](C)[C@@H](NC(=O)[C@@H](Cc1c[nH]cn1)NC(=O)[C@@H](CCC(=O)O)NC(=O)[C@@H](CCC(N)=O)NC(=O)[C@@H](Cc1c[nH]c2ccccc12)NC(=O)[C@@H](Cc1ccc(O)cc1)NC(=O)[C@H](NC(=O)[C@@H](CCC(=O)O)NC(=O)[C@@H](Cc1c[nH]cn1)NC(=O)[C@H](NC(=O)[C@H]1CCCN1C(=O)[C@@H](CC(C)C)NC(=O)[C@H](N)CCCNC(=N)N)[C@H](C)O)[C@H](C)O)C(=O)N[C@H](Cc1c[nH]c2ccccc12)C(=O)N[C@H](Cc1c[nH]cn1)C(=O)N[C@H](C)C(=O)N[C@H](CCCNC(=N)N)C(=O)N[C@H](CCCNC(=N)N)C(=O)N[C@H](CCCNC(=N)N)C(=O)N[C@H](CCCNC(=N)N)C(=O)N[C@H](CCCNC(=N)N)C(N)=O [SVD-1a, rlpthetywqehiwharrrrr] (H-[dR][dL][dP][dT][dH][dE][dT][dY][dW][dQ][dE][dH][dI][dW][dH][dA][dR][dR][dR][dR][dR]-NH2)
cells saved (cell viability) (PC12 cells): 82%
